Test results taken from paper PMC12645437, “Orthogonal IMiD-Degron Pairs Induce Selective Protein Degradation in Cells” (ACS Chemical Biology, 2025).
Several values for one entry are separate records, joined by “and”; a condition that tells them apart may be missing. Equal values may be shown once.

What was measured:
[1] = target: HEIP mutant ZF degron fused to EGFP (Homo sapiens, UniProt Q96SW2+Q9UKT9, N149E/Q147H/Q150I/S154P); test: Ratiometric EGFP:mCherry flow cytometry degradation assay, 18 h
[2] = target: FDIP mutant ZF degron fused to EGFP (Homo sapiens, UniProt Q96SW2+Q9UKT9, N149D/Q147F/Q150I/S154P); test: as above
[3] = target: T1, WEIS-EGFP degron in Jurkat cells (Homo sapiens, UniProt Q96SW2+Q9UKT9, N149E/Q147W/Q150I); test: Time-course EGFP/mCherry flow cytometry degradation assay; format: cell-based
T1 construct: pLVX-Sprout-IKZF3 130-189aa Q147W N149E Q150I (WEIS); expressed in transfected cells
Method: 6 WEIS degron and compound 23 selectivity. Jurkat, ESC, and MM.1S cells were treated for 16 h with the corresponding compound or DMSO control, and the protein abundance was analyzed using multiplexed TMTpro quantification mass spectrometry. […] (A) Jurkat cells were treated with compound 23. (B). Jurkat cells treated with pomalidomide. (C) ESCs were treated with compound 23. (D) ESCs were treated with pomalidomide. (E) MM.1S cells treated with compound 23. […] Values shown are the mean of three biological replicates. WEIS degron and compound 23 kinetic degradation profile. (G) Jurkat cells were transduced with the WEIS-EGFP degron, then incubated with a concentration range of compound 23 (1 pM – 10 μM) for 1–24 h [as shown] and analyzed using flow cytometry. The DMSO-normalized ratiometric values of EGFP/mCherry are shown. (H). The half-maximal (DC50) values from the assay in […] are shown. Mean and SD values are plotted from three biological replicates. […] (J) Jurkat cells were lentivirally transduced with TRIM28 with either N-terminal or C-terminal WEIS degron tag (or untagged control) and HiBit peptide tag, then incubated with a concentration curve of compound 23 (100 pM – 10 μM) for 24 h and analyzed using a HiBit luminescence assay. […] HEK293T cells were lentivirally transduced with one of three POI fusion constructs–NanoLuc, CDK9, or HPRT1–with an N-terminal HA tag and a C-terminal WEIS degron, then incubated with a concentration range of compound 23 (1 nM – 10 μM) for 18 h and analyzed using HA antibody immunoblotting. […] HEK293T cells were lentivirally transduced with NanoLuc with an N-terminal HA tag and a C-terminal WEIS degron, then incubated with a concentration curve of compound 23 (1 nM – 10 μM) for either 6 or 18 h, and analyzed using a NanoGlo luminescence assay. […]
We performed a time-course experiment in which Jurkat cells transduced with the WEIS-EGFP degron were treated with compound 23 at a range of concentrations (1 pM–10 μM) at a selection of time points, and the ratiometric degradation values of EGFP/mCherry were assessed using flow cytometry, as above. […]

[4] = target: WDIA mutant ZF degron fused to EGFP (Homo sapiens, UniProt Q96SW2+Q9UKT9, N149D/Q147W/Q150I/S154A); test: Ratiometric EGFP:mCherry flow cytometry degradation assay, 18 h
Sequence of WDIA mutant ZF degron fused to EGFP (Q9UKT9 130-189 Q147W/N149D/Q150I/S154A): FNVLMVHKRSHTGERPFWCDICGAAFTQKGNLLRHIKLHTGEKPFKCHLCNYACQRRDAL
Sequence of WDIA mutant ZF degron fused to EGFP (Q96SW2 whole entry, the tested form may be a part): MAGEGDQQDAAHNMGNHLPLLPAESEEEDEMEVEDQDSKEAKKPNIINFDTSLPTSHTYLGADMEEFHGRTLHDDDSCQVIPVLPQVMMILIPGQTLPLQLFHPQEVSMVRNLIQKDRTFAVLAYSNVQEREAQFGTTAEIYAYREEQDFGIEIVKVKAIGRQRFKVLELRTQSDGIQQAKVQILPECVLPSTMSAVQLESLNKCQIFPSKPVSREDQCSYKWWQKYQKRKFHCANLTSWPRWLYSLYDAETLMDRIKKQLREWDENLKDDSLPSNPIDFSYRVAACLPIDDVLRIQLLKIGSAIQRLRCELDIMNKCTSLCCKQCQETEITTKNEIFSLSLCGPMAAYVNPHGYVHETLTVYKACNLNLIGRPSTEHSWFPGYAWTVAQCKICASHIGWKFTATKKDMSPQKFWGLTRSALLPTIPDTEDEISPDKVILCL
Sequence of WDIA mutant ZF degron fused to EGFP (Q16531 whole entry partner, the tested form may be a part): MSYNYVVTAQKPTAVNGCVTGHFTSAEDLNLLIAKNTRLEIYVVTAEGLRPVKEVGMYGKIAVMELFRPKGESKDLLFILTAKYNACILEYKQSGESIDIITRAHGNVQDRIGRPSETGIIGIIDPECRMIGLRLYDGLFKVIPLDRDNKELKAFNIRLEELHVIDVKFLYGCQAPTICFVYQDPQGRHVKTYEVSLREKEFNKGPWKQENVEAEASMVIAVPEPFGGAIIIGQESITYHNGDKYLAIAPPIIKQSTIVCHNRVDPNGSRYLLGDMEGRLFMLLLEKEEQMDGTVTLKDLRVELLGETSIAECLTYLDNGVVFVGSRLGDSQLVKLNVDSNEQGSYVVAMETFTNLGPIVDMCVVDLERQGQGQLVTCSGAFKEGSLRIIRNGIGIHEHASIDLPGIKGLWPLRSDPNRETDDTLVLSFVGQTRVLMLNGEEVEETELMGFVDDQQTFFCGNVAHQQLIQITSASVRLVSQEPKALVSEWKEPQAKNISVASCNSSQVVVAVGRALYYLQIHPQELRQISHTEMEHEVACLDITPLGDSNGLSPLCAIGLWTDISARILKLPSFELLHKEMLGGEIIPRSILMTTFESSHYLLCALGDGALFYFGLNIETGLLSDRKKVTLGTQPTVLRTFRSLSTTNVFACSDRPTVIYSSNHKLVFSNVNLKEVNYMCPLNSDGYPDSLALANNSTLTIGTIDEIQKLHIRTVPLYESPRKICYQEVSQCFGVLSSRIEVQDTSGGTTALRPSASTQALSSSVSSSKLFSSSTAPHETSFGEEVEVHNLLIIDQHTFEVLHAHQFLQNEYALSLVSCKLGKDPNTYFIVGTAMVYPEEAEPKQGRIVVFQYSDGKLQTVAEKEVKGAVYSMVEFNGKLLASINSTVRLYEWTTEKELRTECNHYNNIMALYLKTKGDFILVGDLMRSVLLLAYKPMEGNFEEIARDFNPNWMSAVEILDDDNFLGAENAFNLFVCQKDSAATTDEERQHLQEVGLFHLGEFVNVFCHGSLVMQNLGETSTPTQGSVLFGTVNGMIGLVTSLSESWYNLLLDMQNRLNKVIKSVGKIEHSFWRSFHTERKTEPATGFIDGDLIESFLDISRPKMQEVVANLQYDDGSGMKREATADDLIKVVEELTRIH

Sequence of HEIP mutant ZF degron fused to EGFP (Q9UKT9 130-189 Q147H/N149E/Q150I/S154P): as the sequence (Q9UKT9 130-189 Q147W/N149D/Q150I/S154A) above, with W18H, D20E, A25P counted along it
Sequence of HEIP mutant ZF degron fused to EGFP (Q96SW2 whole entry, the tested form may be a part): as the sequence (Q96SW2 whole entry, the tested form may be a part) above
Sequence of HEIP mutant ZF degron fused to EGFP (Q16531 whole entry partner, the tested form may be a part): as the sequence (Q16531 whole entry partner, the tested form may be a part) above
Sequence of FDIP mutant ZF degron fused to EGFP (Q9UKT9 130-189 Q147F/N149D/Q150I/S154P): as the sequence (Q9UKT9 130-189 Q147W/N149D/Q150I/S154A) above, with W18F, A25P counted along it
Sequence of FDIP mutant ZF degron fused to EGFP (Q96SW2 whole entry, the tested form may be a part): as the sequence (Q96SW2 whole entry, the tested form may be a part) above
Sequence of FDIP mutant ZF degron fused to EGFP (Q16531 whole entry partner, the tested form may be a part): as the sequence (Q16531 whole entry partner, the tested form may be a part) above
T1 sequence (Q9UKT9 130-189 Q147W/N149E/Q150I): as the sequence (Q9UKT9 130-189 Q147W/N149D/Q150I/S154A) above, with D20E, A25S counted along it
T1 sequence (Q96SW2 whole entry): as the sequence (Q96SW2 whole entry, the tested form may be a part) above
T1 sequence (Q16531 whole entry partner): as the sequence (Q16531 whole entry partner, the tested form may be a part) above

| SMILES | Selectivity (WT/mutant) ([1]; DC50(WT)/DC50(HEIP)) | DC50 ([1]; HEIP, Jurkat, 18 h) [nM] | pDC50 ([1]; HEIP, Jurkat, 18 h) | Selectivity (WT/mutant) ([2]; DC50(WT)/DC50(FDIP)) | DC50 ([2]; FDIP, Jurkat, 18 h) [nM] | pDC50 ([2]; FDIP, Jurkat, 18 h) | DC50 ([3]; time point 1 h) [nM] | DC50 ([3]; time point 6 h) [nM] | DC50 ([3]; time point 24 h) [nM] | Selectivity (WT/mutant) ([4]; DC50(WT)/DC50(WDIA)) | DC50 ([4]; WDIA, Jurkat, 18 h) [nM] | pDC50 ([4]; WDIA, Jurkat, 18 h) |
| --- | --- | --- | --- | --- | --- | --- | --- | --- | --- | --- | --- | --- |
| CC(C)(C)c1ccc2c(c1)C(=O)N(C1CCC(=O)NC1=O)C2=O (stereo not drawn) [Compound 19] | 25 and 25.1 | 30.2 | 7.52 | 12.0 | 63.1 | 7.20 | – | – | – | – | – | – |
| CN1CCN(c2ccc3c(c2)C(=O)N(C2CCC(=O)NC2=O)C3=O)CC1 (stereo not drawn) [Compound 23] | – | – | – | – | – | – | 10.3 | 2.3 | 18.3 | 22.0 | 28.8 | 7.54 |
